According to PubChem BioAssay AID179 (DTP/NCI, 2004):
Activity calls are given as the source filed them.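 Rule for the calls: active = compounds giving half or more protection of infected cells from virus-caused growth loss, again on retest; inactive = the rest.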

Test system: CEM cells HIV-1 protection, formazan growth assay
Assay: NCI AIDS Antiviral Assay
Details: for IC50: measured here: growth of uninfected CEM cells
Outline: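 Category rules: moderately active means at least 50% protection on retest, and confirmed active means 100% protection reproducibly. The underlying data came from a formazan growth assay in HIV-1-infected CEM cells.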

Row | Compound | EC50 | IC50 | outcome
1 | CC1=CC(C)(C)Nc2ccc(OC(=O)/C=C(C)/C=C/C=C(C)/C=C/C3=C(C)CCCC3(C)C)cc21 | > 200 µM | 27.5 µM | –
2 | O=C(c1ccccc1)c1ccc(SSc2ccc(C(=O)c3ccccc3)cc2[N+](=O)[O-])c([N+](=O)[O-])c1 | > 200 µM | 13.8 µM | –
3 | CCCCCCn1c(SC)nc(COC(=O)NC)c1COC(=O)NC | > 200 µM | 35.5 µM | –
4 | Oc1c(C(Nc2cccc3cccnc23)c2ccccc2)ccc2cccnc12 (stereo not given) | > 3.8 µM | 0.933 µM | –
5 | CO[C@H]1/C=C/O[C@@]2(C)Oc3c(C)c(O)c4c(O)c(c(/C=N/N5CCCN(Cc6ccccc6)CC5)c(O)c4c3C2=O)NC(=O)/C(C)=C\C=C\[C@H](C)[C@H](O)C(C)[C@@H](O)C(C)[C@H](OC(C)=O)[C@@H]1C (stereo not given in full) | > 200 µM | 8.32 µM | –
6 | CCN(CC)CCN.O=c1cccccc1[O-].O=c1cccccc1[O-].[Co+3].[O-][Cl+3]([O-])([O-])[O-] | > 200 µM | 2.24 µM | –
7 | O=S(=O)(c1ccc(N=C=S)cc1)N1CCCCC1 | > 200 µM | 97.7 µM | –
8 | c1ccc2c(c1)Cc1cn3c(nc1-2)nc1ccccc13 | > 200 µM | 129 µM | –
9 | COc1nc(NC2OC(CO)C(O)C(O)C2O)cc(=O)n1C (stereo not given) | – | – | inactive
10 | NC(N)=NCCCC(NC(=O)OCCCCCCn1ccc(N)nc1=O)C(=O)O (stereo not given) | > 200 µM | > 200 µM | –
11 | CN(C)CC(C)(C)C(=O)/C=C/c1ccccc1 | – | – | inactive
12 | CCOC(=O)C(=CNC(=S)Nc1ccccc1)C(=O)OCC | > 200 µM | > 200 µM | –
13 | COC1=C(Br)[C@H](O)[C@@]2(C=C1Br)CC(C(=O)NCCCOc1c(Br)cc(C(O)CNC(C)=O)cc1Br)=NO2 (stereo not given in full) | > 10 µM | 6.61 µM | –
14 | CCC(=O)C1(c2ccccc2)CCN(C)CC1 | > 1070 µM | – | –
15 | CCOC(=O)CCC(NC(=O)c1ccc(Nc2nc3ccccc3nc2-c2cccs2)cc1)C(=O)OCC (stereo not given) | > 200 µM | 13.5 µM | –
16 | CC/C=C\C/C=C\C/C=C\CCCCCCCC(=O)OCC | > 200 µM | 105 µM | –
17 | CCCCCC(/C=C/C1CCC(=O)C1CC#C[Si](C)(C)C)OCc1ccccc1 (stereo not given) | > 200 µM | 27.5 µM | –
18 | COC1/C=C\OC2(C)Oc3c(C)c(O)c4c(O)c(c(/C=N\N5CCCC5)c(O)c4c3C2=O)NC(=O)/C(C)=C\C=C/C(C)C(O)C(C)C(O)C(C)C(OC(C)=O)C1C (stereo not given) | – | – | inactive
19 | COc1c(C)c2nc3ccccc3[nH]c2c2c(=O)ccnc12 | > 100 µM | > 100 µM | –
20 | OCC1C(OCc2ccccc2)C(OCc2ccccc2)C(OCc2ccccc2)CN1Cc1ccccc1 (stereo not given) | – | – | inactive
21 | Cc1ccc(S(=O)(=O)CNC(=S)CCCC(=S)NCS(=O)(=O)c2ccc(C)cc2)cc1 | – | – | inactive
22 | O=C(C=Nc1ccccc1S)c1ccco1 | – | – | inactive

Row | Compound | EC50 | IC50 | outcome
23 | NC1=NS(=O)(=O)Nc2nonc21 | > 1320 µM | > 1320 µM | –
24 | Cc1nn(C(=O)c2ccc(Cl)cc2)c2c1C(/C=C/c1ccccc1)SC(N)=N2 (stereo not given) | 60.3 µM | 158 µM | –
25 | COc1ccccc1NC(=O)C1=C(C)NC(C)=C(C(=O)Nc2ccccc2OC)C1c1ccccc1OC | > 19.5 µM | > 19.5 µM | –
26 | Cc1cn(COCC(O)C[N+](=O)[O-])c(=O)[nH]c1=O (stereo not given) | > 200 µM | > 200 µM | –
27 | O=C(Nc1ccc([N+](=O)[O-])cc1)OCC(COc1ccccc1)OC(=O)Nc1ccc([N+](=O)[O-])cc1 (stereo not given) | > 200 µM | 7.76 µM | –
28 | COc1ccc(NC(C)=O)c(Cl)c1 | > 1260 µM | > 1260 µM | –
29 | Cc1ccc(OCC2OC(n3cnc4nc(Cl)nc(Cl)c43)CC2Oc2ccc(C)cc2)cc1 (stereo not given) | > 200 µM | 1.48 µM | –
30 | CC1(C)CC(=O)C(C=NC(=S)c2ccccc2)=C(O)C1 | > 200 µM | > 200 µM | –
31 | CCCCCCCCCCCC(O)S(=O)(=O)O (stereo not given) | > 200 µM | 102 µM | –
32 | Cc1ccccc1-n1c(=O)sc2c(=O)n(-c3ccccc3)c(=S)[nH]c21 | > 2.82 µM | > 2.82 µM | –
33 | CCOC(=O)/C(=C\c1cccc(Cl)c1)C(C)=O | > 141 µM | 57.5 µM | –
34 | S=c1sc2c(s1)SCCS2 | > 200 µM | 155 µM | –
35 | COc1ccc(/C=C2\C=Cc3ccccc32)cc1OC | > 200 µM | 33.9 µM | –
36 | CCN(CC)CCOc1ccc2c(c1O)C(=O)c1ccccc1C2=O | > 74.1 µM | 3.98 µM | –
37 | CC(=O)OC1N(C(C)=O)C(SC23CC4CC(CC(C4)C2)C3)C(C)=CC1(C)OC(C)=O (stereo not given) | > 200 µM | 126 µM | –
38 | O=Cc1cn(CCCCCn2cc(C=O)c3ccccc32)c2ccccc12 | > 200 µM | > 200 µM | –
39 | Cc1ccc2c(n1)C(N1CCC(C)CC1)=CC(=O)C2=O | – | – | inactive
40 | Cc1cc(NC2=NCCO2)c2c(c1C)CCCC2 | > 200 µM | 29.5 µM | –
41 | CN1c2c(C(=O)NCCCN3CCOCC3)nn(-c3cccc(C(F)(F)F)c3)c2-c2ccccc2S1(=O)=O | > 66.1 µM | > 66.1 µM | –
42 | CCSCCCCCCCCCCCC(=O)O | 9.33 µM | 32.4 µM | –
43 | COc1ccccc1/C=C/C(=O)C(C)(C)C | > 120 µM | 69.2 µM | –
44 | O=C(CCc1ccc(O)c(O)c1)NCCc1cc(O)cc(O)c1 | – | – | inactive

Row | Compound | EC50 | IC50 | outcome
45 | COc1cc(C2CC(=O)c3ccccc3O2)ccc1O (stereo not given) | > 200 µM | 11.7 µM | –
46 | CC1CCOC(Sc2ccccc2)C1 (stereo not given) | – | – | inactive
47 | Cc1c([N+](=O)[O-])oc2c1C(=O)N([N+](=O)[O-])CCC2 | > 89.1 µM | > 89.1 µM | –
48 | CC(C)(C)OC(=O)N[C@@H]1C(=O)N2CCCOC12 (stereo not given in full) | – | – | inactive
49 | CC(=O)OCC(OC(C)=O)C(OC(C)=O)C(Cn1c(=O)cc(C)c2ccc(C)c(C)c21)OC(C)=O (stereo not given) | > 200 µM | > 200 µM | –
50 | CCO/C=C1\N=C(C(Cl)c2ccccc2)OC1=O (stereo not given) | > 135 µM | > 135 µM | –
51 | COc1cc2c(cc1OC)C(C(=O)c1cccc(OC)c1OC)C(=O)N(C)CC2 (stereo not given) | > 126 µM | > 126 µM | –
52 | S=C(/N=c1/sc(Nc2ccccc2)nc2sc3c(c12)CCCC3)Nc1ccccc1 | > 126 µM | > 126 µM | –
53 | CSc1nnc2n1-c1ccccc1SCC2 | > 1000 µM | 389 µM | –
54 | CCOC(=O)c1nc2cc(F)cc(F)c2[nH]c1=O | > 200 µM | 162 µM | –
55 | O=c1[nH]c2cc(C(F)(F)F)ccc2nc1Cc1ccccc1 | > 200 µM | > 200 µM | –
56 | CC[n+]1c2ccc(C)cc2nc2c3ccccc3c(N)cc21 | > 200 µM | 1.02 µM | –
57 | Cc1ccc(S(=O)(=O)/N=S(\C)c2ccc(Cl)cc2)cc1 (stereo not given) | > 759 µM | 178 µM | –
58 | COc1ccc(NC(=O)CC(=O)N/N=C/c2ccc(N(CCC#N)S(=O)(=O)c3ccccc3)cc2)cc1 | > 251 µM | > 251 µM | –
59 | O=C1c2ccccc2/C=C\C(c2ccccc2)=N/N1c1ccccc1Cl | > 200 µM | 12.6 µM | –
60 | CN1C(c2ccccc2)CS(=O)(=O)CS1(=O)=O (stereo not given) | – | – | inactive
61 | CCOC(=O)C1C[C@@H](O)CN1C(=O)c1ccc2c(c1)OCCO2 (stereo not given in full) | > 200 µM | > 200 µM | –
62 | NNc1nc2ccccc2c(=O)n1NC(=O)C(=O)Nc1cccc(C(F)(F)F)c1 | > 324 µM | > 324 µM | –
63 | N#C/C(N)=C(\C#N)NC=NCCO | > 200 µM | > 200 µM | –
64 | Nc1nc(N)c2cc(Sc3ccc4nc(N)nc(N)c4c3)ccc2n1 | > 0.2 µM | 0.0708 µM | –
65 | CCc1cccc(CC)c1N1C(=O)C2=C(SCCCS2)C1=O | > 44.7 µM | 24 µM | –
66 | CN(C)CCCc1cccc2[nH]c3c(c12)CN(C)CC3 | > 200 µM | 126 µM | –

Row | Compound | EC50 | IC50 | outcome
67 | CN(C)/C=C/c1nnnn1-c1ccc(I)cc1 | > 200 µM | 33.1 µM | –
68 | CCc1cc(Cc2cc(CC)c(NC(=O)C(=O)CC(=O)c3sc(-c4cccnc4)nc3C)c(CC)c2)cc(CC)c1NC(=O)C(=O)CC(=O)c1sc(-c2cccnc2)nc1C | > 105 µM | > 105 µM | –
69 | CCOC(=O)C1C(=S)NC(=O)C1C#N (stereo not given) | – | – | inactive
70 | COc1c(Cl)cc(C(=CCCCC(=O)N(C)OC)c2cc(Cl)c(OC)c(C(=O)N(C)OC)c2)cc1C(=O)N(C)OC | > 200 µM | 30.9 µM | –
71 | Cc1nc2ccccc2c2c(N)cccc12 | > 200 µM | > 200 µM | –
72 | CC(C)(c1cn(Cc2ccccc2)c2ccccc12)c1cn(Cc2ccccc2)c2ccccc12 | – | – | inactive
73 | CC(=O)OC1C(C)(O)[C@@H]2CC[C@H]3C4(C)CCCC(C)(C)[C@H]4CC[C@]13C2 (stereo not given in full) | > 50.1 µM | > 50.1 µM | –
74 | CSC1C(=O)Nc2ccc3ccccc3c21 (stereo not given) | > 200 µM | 10.2 µM | –
75 | CC(C(=O)c1ccc(Cl)cc1)/C(=N/NC(=O)NN)C(=O)Nc1cccc(C(F)(F)F)c1 (stereo not given) | > 79.4 µM | > 79.4 µM | –
76 | COc1cc([N+](=O)[O-])cc2c1NC(=O)C2(C)SC (stereo not given) | > 200 µM | 30.9 µM | –
77 | O=c1c2cc([N+](=O)[O-])ccc2[nH]n1Cc1ccccn1 | > 200 µM | > 200 µM | –
78 | COc1cc([C@@H]2c3cc4c(c(O)c3C[C@H]3COC(=O)[C@@H]32)OCO4)cc(OC)c1OC | > 0.02 µM | 0.00309 µM | –
79 | O=C1C=C(C23CC4CC(CC(C4)C2)C3)N2CCCc3cccc(c32)N1 | > 100 µM | > 100 µM | –
80 | CCO/C=C(\C(=O)OC)S(=O)(=O)c1ccc(C)cc1 | > 200 µM | > 200 µM | –
81 | C/C(=N\O)[C@H]1CC[C@H]2[C@@H]3CC[C@@H]4C/C(=N/O)CC[C@]4(C)[C@H]3[C@@](C)(O)C[C@]12C | > 200 µM | 26.9 µM | –
82 | CCOC1=NC(=O)CC(c2ccccc2)S1 (stereo not given) | – | – | inactive
83 | COC(=O)C1(C(=O)OC)CC(=O)c2c(OC(=O)c3cccc(OC)c3C#N)ccc(OC(=O)c3cccc(OC)c3C#N)c2C1 | > 200 µM | 29.5 µM | –
84 | COC(=O)C(CC(=O)Nc1ccc(Cl)c(Cl)c1)C(=O)C(=O)NC1C2CC3CC(C2)CC1C3 (stereo not given) | > 70.8 µM | > 70.8 µM | –
85 | COC(CNC(=O)NC(=O)CCC(=O)O)[CH2][Hg][n]1cnc2c1c(=O)n(C)c(=O)n2C (stereo not given) | > 200 µM | 85.1 µM | –
86 | C=C1C2CCC3(CCC4C5(C)CCCC4(CN(C(C)=O)C5)C3C2)C1O (stereo not given) | – | – | inactive
87 | Cc1nc2c(Cl)cc(Cl)cc2c(Cl)c1CCCl | > 200 µM | > 200 µM | –
88 | Cn1nnn2c(-c3ccccc3)nnc12 | > 891 µM | > 891 µM | –
